# Results as given in patent publication US20230165252A1, “ACTIVE COMPOUND COMBINATIONS” (Bayer Aktiengesellschaft, priority 2020, published 2023).
# “And” between values parts separate entries of the source, which are not always exact repeats. Equal values may be shown once.
# Tests used:
# Botrytis cinerea = experiment: in vitro-Test with Botrytis cinerea (microtiter growth inhibition); type: cell-based
# Description: (§1) The degree of efficacy expressed in % is denoted: 0% means an efficacy, which corresponds to that of the control, while an efficacy of 100% means that no disease is observed.
# (§2) If the actual fungicidal activity exceeds the calculated value, then the activity of the combination is super-additive, i.e. a synergistic effect exists. In this case, the efficacy, which was actually observed, must be greater than the value for the expected efficacy (E), that was calculated from the abovementioned formula.
# (§3) Example: In Vitro-Test with Fungal Microorganisms
# (§4) Wells of 96-well microtiter plates are filled with 10 μl of a preparation of test compound or compound combination in methanol+emulsifier alkylaryl-polyglycol-ether. Thereafter, the solvent is evaporated in a hood. At the next step, 100 μl of liquid potato dextrose medium is given into each well, that has been amended with an appropriate concentration of spores or mycelium suspension of the test fungus.
# (§5) With the aid of a photometer, the extinction in all wells is measured at the wavelength of 620 nm.
# (§6) The microtiter plates are incubated at 20° C. and 85% relative humidity. The inhibition of growth is determined again photometrically 3-5 days after the application. Efficacy is calculated in relation to the untreated control, 0% efficacy means fungal growth as high as in untreated control while 100% efficacy means no fungal growth is measured.
# Parastagonospora nodorum = experiment: in vitro-Test with Parastagonospora nodorum (microtiter growth inhibition); type: cell-based
# Description: as §1, §2, §3, §4, §5, §6
# Alternaria alternate = experiment: in vitro-Test with Alternaria alternate (microtiter growth inhibition); type: cell-based; settings: for Efficacy: applied alone; for Efficacy %: alone
# Description: as §1, §2, §3, §4, §5, §6
# Diaporthe citri = experiment: in vitro-Test with Diaporthe citri (microtiter growth inhibition); type: cell-based; settings: applied alone
# Description: as §2, §3, §4, §5, §6
# [1] = Measurement of Log P values by HPLC on reversed phase columns (EEC directive 79/831 Annex V.A8), methods [a], [b], [c]; type: physicochemical
# Description: Measurement of Log P values as provided herein was performed according to EEC directive 79/831 Annex V.A8 by HPLC (High Performance Liquid Chromatography) on reversed phase columns with the following methods: • ^[a]
# [2] = Parastagonospora nodorum, compound alone, read-out: Efficacy %
# [3] = Parastagonospora nodorum, compound alone, 20 ppm, read-out: Efficacy %
smiles,measurement,setting,value
Cc1ccc(C(F)(F)CNC(=O)c2c(Oc3cccc(C4CC4)c3F)nnc(Cl)c2C)c(C)c1 [(1-655)],Efficacy %,Botrytis cinerea; single active at 0.004 ppm,0%
same,Efficacy %,Botrytis cinerea; single active at 0.020 ppm,0%
same,Efficacy %,Botrytis cinerea; single active at 0.1 ppm,58%
same,Efficacy %,Botrytis cinerea; single active at 0.5 ppm,100%
Cc1ccc(C(F)(F)CNC(=O)c2c(Oc3cccc(C4CC4)c3F)nnc(Cl)c2C)c(Cl)c1 [(1-746)],Efficacy %,Botrytis cinerea; single active at 0.004 ppm,0%
same,Efficacy %,Botrytis cinerea; single active at 0.020 ppm,0%
same,Efficacy %,Botrytis cinerea; single active at 0.1 ppm,38%
same,Efficacy %,Botrytis cinerea; single active at 0.5 ppm,100%
Cc1ccc(C(F)(F)CNC(=O)c2c(Oc3cccc(C4CC4)c3F)nnc(Cl)c2C)cc1C [(1-749)],Efficacy %,Botrytis cinerea; single active at 0.004 ppm,0%
same,Efficacy %,Botrytis cinerea; single active at 0.020 ppm,0%
same,Efficacy %,Botrytis cinerea; single active at 0.1 ppm,45%
same,Efficacy %,Botrytis cinerea; single active at 0.5 ppm,99%
CCCN(CC)CC1COC2(CCC(C(C)(C)C)CC2)O1 (stereo not drawn) [(1.020) spiroxamine],inhibition of growth at 20 ppm,"Botrytis cinerea; Botrytis cinerea, single active at 20 ppm, read-out: Efficacy %",15%
same,inhibition of growth at 0.8 ppm,Parastagonospora nodorum; [2],6%
same,inhibition of growth at 4 ppm,Parastagonospora nodorum; [2],0%
same,inhibition of growth at 20 ppm,Parastagonospora nodorum; [3],0%
Cn1cc(C(=O)Nc2ccc(F)cc2-c2ccc(Cl)c(Cl)c2)c(C(F)F)n1 [(2.002) bixafen],Efficacy %,Botrytis cinerea; single active at 0.008 ppm,9%
same,Efficacy %,Botrytis cinerea; single active at 0.04 ppm,42%
same,Efficacy %,Botrytis cinerea; single active at 0.2 ppm,55% and 67%
same,Efficacy %,Botrytis cinerea; single active at 1.0 ppm,67% and 73%
same,Efficacy %,"Parastagonospora nodorum; compound alone, 0.04 ppm",3%
C[C@@H]1CC(C)(C)c2c(F)ccc(NC(=O)c3cn(C)nc3C(F)F)c21 [(2.028) inpyrfluxam],Efficacy %,Botrytis cinerea; single active at 0.008 ppm,0%
same,Efficacy %,Botrytis cinerea; single active at 0.04 ppm,48% and 55%
same,Efficacy %,Botrytis cinerea; single active at 0.2 ppm,60% and 66%
same,Efficacy %,Botrytis cinerea; single active at 1.0 ppm,63% and 91%
same,Efficacy %,"Parastagonospora nodorum; compound alone, 0.008 ppm",0%
same,Efficacy %,"Parastagonospora nodorum; compound alone, 0.04 ppm",23%
same,Efficacy %,"Parastagonospora nodorum; compound alone, 0.2 ppm",33%
same,Efficacy %,"Parastagonospora nodorum; compound alone, 1.0 ppm",33%
O=C1C2CC=CCC2C(=O)N1SC(Cl)(Cl)Cl (stereo not drawn) [(5.003) captan],inhibition of growth at 4 ppm,"Botrytis cinerea; Botrytis cinerea, single active at 4 ppm, read-out: Efficacy %",20%
same,inhibition of growth at 4 ppm,Parastagonospora nodorum; [2],54%
same,inhibition of growth at 20 ppm,Parastagonospora nodorum; [3],100%
O=C1c2ccccc2C(=O)N1SC(Cl)(Cl)Cl [(5.012) folpet],inhibition of growth at 0.08 ppm,"Botrytis cinerea; Botrytis cinerea, single active at 0.08 ppm, read-out: Efficacy %",0%
same,inhibition of growth at 0.4 ppm,"Botrytis cinerea; Botrytis cinerea, single active at 0.4 ppm, read-out: Efficacy %",2%
same,Efficacy %,Botrytis cinerea; single active at 0.4 ppm,0%
same,inhibition of growth at 2 ppm,"Parastagonospora nodorum; Parastagonospora nodorum, compound alone, 2 ppm, read-out: Efficacy %",91%
same,inhibition of growth at 10 ppm,"Parastagonospora nodorum; Parastagonospora nodorum, compound alone, 10 ppm, read-out: Efficacy %",100%
Cc1cc(C)nc(Nc2ccccc2)n1 [(7.005) pyrimethanil],inhibition of growth at 0.8 ppm,"Botrytis cinerea; Botrytis cinerea, single active at 0.8 ppm, read-out: Efficacy %",78%
same,inhibition of growth at 0.8 ppm,Parastagonospora nodorum; [2],99%
same,inhibition of growth at 4 ppm,Parastagonospora nodorum; [2],100%
same,Efficacy %,"Parastagonospora nodorum; compound alone, 20 ppm",100%
"CC1CC(C)(C)c2c(F)ccc(NC(=O)c3cn(C)nc3C(F)F)c21 (stereo not drawn) [Compound 2.028, inpyrfluxam]",Efficacy,Alternaria alternate; 0.008 ppm,0%
same,Efficacy,Alternaria alternate; 0.04 ppm,57%
same,Efficacy,Alternaria alternate; 0.2 ppm,73%
same,Efficacy,Alternaria alternate; 1.0 ppm,79%
same,Efficacy,Diaporthe citri; 0.008 ppm,0% and 7%
same,Efficacy,Diaporthe citri; 0.04 ppm,23%
same,Efficacy,Diaporthe citri; 0.2 ppm,47% and 32%
same,Efficacy,Diaporthe citri; 1.0 ppm,92% and 94%
O=C(NCCc1ccc(C(F)F)cc1)c1cc(Cl)nnc1Oc1cccc(C(F)(F)F)c1 [I-309],LogP,[1]; HPLC method [a],3.78^[a]
O=C(NCC(F)(F)c1ccc(Br)cc1Cl)c1cc(C2CC2)nnc1Oc1cccc(C(F)(F)F)c1 [I-312],LogP,[1]; HPLC method [a],4.79^[a];
O=C(NCC(F)(F)c1ccc(Br)cc1Cl)c1cc(Cl)nnc1Oc1cccc(C(F)(F)F)c1F [I-315],LogP,[1]; HPLC method [a],4.71^[a]
Cc1ccc(C(F)(F)CNC(=O)c2cc(-c3ccncc3)nnc2Oc2cccc(C(F)(F)F)c2)c(C)c1 [I-316],LogP,[1]; HPLC method [a],3.65^[a]
Cc1c(Cl)nnc(Oc2cccc(C(F)(F)F)c2)c1C(=O)NCC(F)(F)c1ccc(Cl)cc1Cl [I-338],LogP,[1]; HPLC method [a],4.43^[a]
Cc1ccc(CCNC(=O)c2cc(Cl)nnc2Oc2cccc(C(F)(F)F)c2)c(-c2nccn2C)c1 [I-341],LogP,[1]; HPLC method [a],1.85^[a]
O=C(NCC(F)(F)c1ccc(C2CC2)cc1Cl)c1cc(Cl)nnc1Oc1cccc(C(F)(F)F)c1 [I-360],LogP,[1]; HPLC method [a],4.58^[a]
O=C(NCc1cncc2ccccc12)c1cc(Cl)nnc1Oc1cccc(C(F)(F)F)c1 [I-379],LogP,[1]; HPLC method [a],2.14^[a]
Cc1cc(Br)ccc1C(F)(F)CNC(=O)c1cc(Cl)nnc1Oc1cccc(C(F)(F)F)c1 [I-404],LogP,[1]; HPLC method [a],4.57^[a]
Cc1ccc(C(F)(F)CNC(=O)c2cc(C)nnc2Oc2cccc(C(F)(F)F)c2)c(C)c1 [I-411],LogP,[1]; HPLC method [a],4.00^[a]
O=C(NCC(F)(F)c1ccc(C(F)(F)F)cc1Cl)c1cc(Cl)nnc1Oc1cccc(C(F)(F)F)c1 [I-418],LogP,[1]; HPLC method [a],4.45^[a]
CCSc1c(Cl)nnc(Oc2cccc(C(F)(F)F)c2)c1C(=O)NCC(F)(F)c1ccc(C)cc1C [I-442],LogP,[1]; method [a],4.87^[a]
O=C(NCC(F)(F)c1ccc(Cl)cc1Br)c1cc(Cl)nnc1Oc1cccc(C(F)(F)F)c1 [I-478],LogP,[1]; method [a],4.68^[a]
COc1ccc(CCNC(=O)c2c(Oc3cccc(C(F)(F)F)c3)nnc(Cl)c2C)c(OC)c1 [I-500],LogP,[1]; method [a],3.65^[a]
Cc1ccc(C(F)(F)CNC(=O)c2cc(-c3cn[nH]c3)nnc2Oc2cccc(C(F)(F)F)c2)c(C)c1 [I-515],LogP,[1]; method [a],3.65^[a]
Cc1cc(C(=O)NCCc2ccc(C(F)F)cn2)c(Oc2cccc(C(F)(F)F)c2)nn1 [I-525],LogP,[1]; method [a],2.57^[a];
O=C(NCCc1ccc(-c2ccncc2)cc1)c1cc(Cl)nnc1Oc1cccc(C(F)(F)F)c1 [I-542],LogP,[1]; method [a],2.13^[a]
Cc1cc(C(=O)NCCc2cccc3oc(C)nc23)c(Oc2cccc(C(F)(F)F)c2)nn1 [I-543],LogP,[1]; method [a],2.96^[a]
O=C(NCCc1ccc2c(c1)CCO2)c1cc(Cl)nnc1Oc1cccc(C(F)(F)F)c1 [I-551],LogP,[1]; method [a],3.65^[a]
O=C(NCc1cccc2cnccc12)c1cc(Cl)nnc1Oc1cccc(C(F)(F)F)c1 [I-559],LogP,[1]; method [a],2.14^[a]
CCc1cccc(Oc2nnc(Cl)cc2C(=O)NCC(F)(F)c2ccc(C)cc2C)c1 [I-570],LogP,[1]; method [a],4.68^[a]
O=C(NCCc1ccc2c(c1)OCCO2)c1cc(Cl)nnc1Oc1cccc(C(F)(F)F)c1 [I-573],LogP,[1]; method [a],3.53^[a]
C#Cc1cc(C(=O)NCC(F)(F)c2ccc(C)cc2C)c(Oc2cccc(C(F)(F)F)c2)nn1 [I-577],LogP,[1]; method [a],4.31^[a]
O=C(NCC(F)(F)c1ccc(Cl)cc1Cl)c1cc(Cl)nnc1Oc1cccc(C2CC2)c1F [I-598],LogP,[1]; method [a],4.71^[a]
Cc1ccc(C2(CNC(=O)c3cc(Cl)nnc3Oc3cccc(C(F)(F)F)c3)CC2)cc1 [I-601],LogP,[1]; method [a],4.58^[a]
O=C(NCC(F)(F)Oc1ccc(C(F)(F)F)cc1Cl)c1cc(Cl)nnc1Oc1cccc(C(F)(F)F)c1 [I-633],LogP,[1]; method [a],4.58^[a]
O=C(NCCc1ncc(Cl)cn1)c1cc(Cl)nnc1Oc1cccc(C(F)(F)F)c1 [I-635],LogP,[1]; method [a],3.05^[a]
COCCc1c(C2CC2)nnc(Oc2cccc(C(F)(F)F)c2)c1C(=O)NCC(F)(F)c1ccc(C)cc1C [I-636],LogP,[1]; method [a],4.57^[a]
Cc1c(C2CC2)nnc(Oc2cccc(C(F)(F)F)c2)c1C(=O)NCC(F)(F)c1ccc(Cl)cc1Cl [I-642],LogP,[1]; method [a],4.43^[a]
Cc1ccc(C(F)(F)CNC(=O)c2c(Oc3cccc(C(F)(F)F)c3)nnc(C3CC3)c2NC2CC2)c(C)c1 [I-650],LogP,[1]; method [a],4.10^[a]
Cc1ccc(C(F)(F)CNC(=O)c2cc(CCC#N)nnc2Oc2cccc(C(F)(F)F)c2)c(C)c1 [I-662],LogP,[1]; method [a],3.78^[a]
C=CCOc1c(Cl)nnc(Oc2cccc(C(F)(F)F)c2)c1C(=O)NCC(F)(F)c1ccc(C)cc1C [I-684],LogP,[1]; method [a],4.87^[a]
Cc1cnn(CCNC(=O)c2cc(C)nnc2Oc2cccc(C(F)(F)F)c2)c1 [I-691],LogP,[1]; method [a],2.58^[a]
CON(CCc1ccc(Cl)cc1Cl)C(=O)c1c(Oc2cccc(C3CC3)c2F)nnc(Cl)c1C [I-739],LogP,[1]; method [a],5.36^[a]
CNc1c(Cl)nnc(Oc2cccc(C3CC3)c2F)c1C(=O)NCCc1ccc(Cl)cc1Cl [I-757],LogP,[1]; method [a],4.09^[a]
Cc1ccc(C(F)(F)CNC(=O)c2cc(Cl)nnc2Oc2ccc3[nH]ccc3c2)c(C)c1 [I-769],LogP,[1]; method [a],3.78^[a]
C=C(C)OC(=O)N(CC(F)(F)c1ccc(C)cc1C)C(=O)c1cc(Cl)nnc1Oc1cccc(C(F)(F)F)c1 [I-785],LogP,[1]; method [a],5.51^[a]
COCCc1cc(C(=O)NCC(F)(F)c2ccc(C)cc2C)c(Oc2cccc(C(F)(F)F)c2)nn1 [I-796],LogP,[1]; method [a],4.00^[a]
Cc1ccc(C(F)(F)CNC(=O)c2cc(Cc3ccccc3)nnc2Oc2cccc(C(F)(F)F)c2)c(C)c1 [I-797],LogP,[1]; method [a],4.95^[a]
Cc1ccc(C(F)(F)CNC(=O)c2cc(CC3CCC3)nnc2Oc2cccc(C(F)(F)F)c2)c(C)c1 [I-798],LogP,[1]; method [a],5.02^[a]
Cc1ccc(C(F)(F)CNC(=O)c2c(Oc3cccc(C(F)(F)F)c3)nnc(Cl)c2NCCC2CC2)c(C)c1 [I-809],LogP,[1]; method [a],4.95^[a]
O=C(NCC(F)(F)c1cc(Cl)sc1Cl)c1cc(Cl)nnc1Oc1cccc(C(F)(F)F)c1 [I-825],LogP,"[1]; HPLC on reversed phase column, method [a]",4.73^[a]
Cn1cc(C(=O)Nc2ccc(F)cc2-c2ccc(Cl)c(Cl)c2)c(C(F)F)n1 [bixafen],Efficacy %,Alternaria alternate; 0.04 ppm,79%
same,Efficacy %,Alternaria alternate; 0.2 ppm,81%
same,Efficacy %,Alternaria alternate; 1.0 ppm,86%
same,Efficacy,Parastagonospora nodorum; 0.2 ppm,34%
same,Efficacy,Parastagonospora nodorum; 1.0 ppm,41%
